Results from patent EP0153171A2, “New 2-hydroxyethyl-trimethylammonium salt of 1-ethyl-3-carboxy-4-oxo-6,7-methylenedioxy-1,4-dihydroquinoline, process for the preparation thereof and pharmaceutical composition containing it” (CHINOIN Gyogyszer és Vegyészeti Termékek Gyára RT., priority 1984, dated 1985).
Values joined by “and” are separate entries in the source; they are usually repeats but may differ in a detail not shown here. Equal values may be shown once. Where a name gives a salt, the structure may show the parent alone.

Experiments:
[1] = in vivo resorption examination in mice: serum concentration determined microbiologically from inhibition zones; design: species or system Male CFLP mice; conditions: for resorption: in vivo, comparison in words; for concentration at 0.5 h: 0.5 hour after treatment, as oxolinic acid; for concentration at 0.5 h / concentration at 1 h / concentration at 2 h / concentration at 3 h / concentration at 4 h: read-out: Plasma concentrations from the calibration curve; for concentration at 1 h: 1 hour after treatment; for concentration at 2 h: 2 hours after treatment; for concentration at 3 h: 3 hours after treatment; for concentration at 4 h: 4 hours after treatment; for Diameters of the inhibition zones: parallels a, b, c
Method: Male CFLP mice with 25 g of an average body weight were used for these experiments. After starving for 12 hours, the animals were given oxolinic acid or choline oxolinate, respectively in a volume of 2 ml/100 g of body weight as an aqueous suspension containing 1 % of methylcellulose. The doses administered were 50 mg/kg of body weight of oxolinic acid or 70 mg/kg of body weight of choline oxolinate, respectively. )These doses are equimolar as calculated for oxolinic acid.) At 0.5, 1, 2, 3 or 4 hours, respectively after treatment the animals were killed, their blood were centrifuged and the serum were used for the microbiological determination of the concentration.
(§1) The examinations were carried out in three parallels. 50/ul of the serum were applied to an agar gel plate containing Proteus Mirabilis in a concentration of 10^7 germs/ml. Simultaneously, a calibration curve was taken up with 50 ul each of suspensions containing oxolinic acid in a concentration of 1, 2, 4, 5, 10, 50 and 100 ug/ml, respectively. The serum concentrations were calculated from the average of diameters of the inhibition zones by using the calibration curve.
(§2) The calibration values are shown in Table I and in Figue 3, respectively. The results of determinations are summarized in Tables II and III and in Figure 4, respectively.

[2] = solubility of the substance in water and solvents
Proteus Mirabilis = assay: calibrating series on agar gel plate: inhibition zone against concentration; type: cell-based; conditions: 50 ul applied, 2 parallels
Method: as §1, with “The examinations were carried out in three parallels.” left out
as §2

[3] = mouse, serum, 50 mg/kg oxolinic acid or 70 mg/kg choline oxolinate
[4] = serum sampled at 1.0 hour, 50 mg/kg oxolinic acid or 70 mg/kg choline oxolinate
[5] = serum sampled at 2.0 hour, 50 mg/kg oxolinic acid or 70 mg/kg choline oxolinate
[6] = serum sampled at 3.0 hour, 50 mg/kg oxolinic acid or 70 mg/kg choline oxolinate
[7] = serum sampled at 4.0 hour, 50 mg/kg oxolinic acid or 70 mg/kg choline oxolinate

SMILES	resorption [1]	concentration at 0.5 h [1, 3]	concentration at 1 h [1, 3]	concentration at 2 h [1, 3]	concentration at 3 h [1, 3]	concentration at 4 h [1, 3]	Diameters of the inhibition zones [1, 4]	Diameters of the inhibition zones [1, 5]	Diameters of the inhibition zones [1, 6]	Diameters of the inhibition zones [1, 7]	solubility in water ([2]; water)	other results
CCn1cc(C(=O)[O-])c(=O)c2cc3c(cc21)OCO3.[Na+] [sodium oxolinate]	weaker than that of choline oxolinate	–	–	–	–	–	–	–	–	–	–	–
CCn1cc(C(=O)O)c(=O)c2cc3c(cc21)OCO3 [choline oxolinate, 2-hydroxyethyl-trimethylammonium salt of 1-ethyl-3-carboxy-4-oxo-6,7-methylenedioxy-1,4-dihydroquinoline]	substantially better resorbed	56 µg/mL	26 µg/mL	15 µg/mL	6.6 µg/mL	3.1 µg/mL	19.3 mm and 19.1 mm and 20.9 mm	18.2 mm and 17.8 mm	13.9 mm and 15.3 mm and 11.4 mm	11.7 mm and 14.3 mm	higher than 1 g/ml	bioavailability ([1]; mice, compared with administration of oxolinic acid): sigrificantly higher; Tmax ([1]; mouse, serum, mice, 70 mg/kg choline oxolinate, first sampling, read-out: time at which a high level of serum concentration was reached): ≤ 30 min; Diameters of the inhibition zones ([1]; serum sampled at 0.5 hour, equimolar doses: 50 mg/kg oxolinic acid or 70 mg/kg choline oxolinate, 50 ul serum on Proteus Mirabilis plate): 22.6 mm and 21.9 mm; solubility (in words) ([2]; acetone): insoluble; solubility (in words) ([2]; chloroform): dissolves well; solubility (in words) ([2]; ethanol): dissolves well; solubility (in words) ([2]; ether): insoluble; solubility (in words) ([2]; water): dissolves well
CCn1cc(C(=O)O)c(=O)c2cc3c(cc21)OCO3 [oxolinic acid, 1-ethyl--3-carboxy-4-oxo-6,7-methylenedioxy-1,4-dihydroquinoline]	–	15 µg/mL	14.5 µg/mL	4.6 µg/mL	4.2 µg/mL	4.8 µg/mL	17.7 mm and 18.2 mm and 17.5 mm	15.3 mm and 17.4 mm and 8.8 mm	14.0 mm and 16.0 mm and 14.3 mm	16.8 mm and 14.7 mm and 14.1 mm	6,5 /ug/ml	zone of inhibition at 1 µg/mL (Proteus Mirabilis; Proteus mirabilis, concentration 1 /ug/ml, read-out: Diameter of the inhibition zone): 8.6 mm; zone of inhibition at 2 µg/mL (Proteus Mirabilis; Proteus mirabilis, concentration 2 /ug/ml, read-out: Diameter of the inhibition zone): 11.6 mm; zone of inhibition at 4 µg/mL (Proteus Mirabilis; Proteus mirabilis, concentration 4 /ug/ml, read-out: Diameter of the inhibition zone): 14.4 mm; zone of inhibition at 5 µg/mL (Proteus Mirabilis; Proteus mirabilis, concentration 5 /ug/ml, read-out: Diameter of the inhibition zone): 15 mm; zone of inhibition at 10 µg/mL (Proteus Mirabilis; Proteus mirabilis, concentration 10 /ug/ml, read-out: Diameter of the inhibition zone): 17.9 mm; zone of inhibition at 50 µg/mL (Proteus Mirabilis; Proteus mirabilis, concentration 50 /ug/ml, read-out: Diameter of the inhibition zone): 20.7 mm; zone of inhibition at 100 µg/mL (Proteus Mirabilis; Proteus mirabilis, concentration 100 /ug/ml, read-out: Diameter of the inhibition zone): 26.5 mm; Diameter of the inhibition zone (Proteus Mirabilis; concentration 1 /ug/ml): 8.5 mm; Diameter of the inhibition zone (Proteus Mirabilis; concentration 2 /ug/ml): 11.9 mm; Diameter of the inhibition zone (Proteus Mirabilis; concentration 4 /ug/ml): 14.1 mm; Diameter of the inhibition zone (Proteus Mirabilis; concentration 5 /ug/ml): 14.7 mm; Diameter of the inhibition zone (Proteus Mirabilis; concentration 10 /ug/ml): 17.2 mm; Diameter of the inhibition zone (Proteus Mirabilis; concentration 50 /ug/ml): 19.4 mm; Diameter of the inhibition zone (Proteus Mirabilis; concentration 100 /ug/ml): 24.7 mm
